Assay results as given in patent US20240123022A1, “A STABLE ANTI-ANGIOGENIC AND ANTI-INFLAMMATORY PHARMACEUTICAL FORMULATION AND PHARMACEUTICAL COMBINATION FOR TREATMENT AND PREVENTION OF PSORIASIS” (priority 2021, published 2024).

Assays:
Caspase 3 = experiment: Caspase-3 activation assay in HaCaT cells; type: cell-based, human; settings: 100 to 5000 μg/mL, 24 h and 48 h, vs untreated cells
Description: The study aimed to determine action of IS217 on the death mediator Caspase 3 which acts as dominant regulator during cell death induction. HaCaT cells were used as test system and in house validation assay was done by using Anthralin dissolved in DMSO (positive control).

in vitro = settings: human, microsomes
Description: Metabolic stability assay was performed to determine in vitro half-life and intrinsic clearance of test item. […] Following centrifugation, the supernatant was analyzed on HPLC-UV.

[1] = Stability of IS217 API, long-term condition −20 ± 5° C.; type: physicochemical; settings: for Appearance, change / Assessment of container closure system, change / Clarity of solution, change / Color of Solution, change / Color, change / Odor, change: long-term −20 ± 5° C.
Description: The purpose of stability testing is to provide evidence on how the quality of a drug substance or drug product varies with time under the influence of a variety of environmental factors such as temperature, humidity, etc. and to establish a re-test period for the drug substance or a shelf life for the drug product and recommended storage conditions. The study was conducted according to the WHO and Schedule-Y guidelines.
The drug substance is a lyophilized white fluffy powder, and it was filled at sterile condition in glass injection vial which has airlock-rubber capping. This container closure system is the same as or simulates the packaging proposed for storage and distribution.
This study has included testing of those attributes of the drug substance that are susceptible to change during storage and are likely to influence quality, safety and/or efficacy. The testing was covered, as appropriate, the physical and chemical attributes.
The following test attributes have been selected according to above said guidelines. • Appearance; odour; colour; colour of solution (when the drug substance is soluble in solvent); clarity of solution; degradation and assessment of container closure system
Testing frequency for long-term studies have been designed as per schedule Y. […]
The studies were conducted under appropriate storage conditions (with appropriate tolerances) that test drug substance thermal stability and its sensitivity to moisture. The drug substance is intended to store for 24 months. Accordingly, long term stability studies were done for 24 months. The details of the storage conditions have been furnished hereunder.
23.4: Long term stability study results Name of the Product: IS217; Batch size: 200 m·mol; Storage Conditions: −20±5° C.

[2] = tested on: human keratinocytes (HaCaT) cells; experiment: Annexin-V externalization (pro-apoptotic effect); type: cell-based; settings: 48 h, vs control
Description: Pro-apoptotic effect of IS217 was evaluated in human keratinocytes (HaCaT) cells by using the Annexin-V externalization. In this study, cells were plated and incubated for about 24 hours by using dulbecco's modified eagle's medium (DMEM) with about 10% fetal bovine serum (FBS) and cells were sera starved using about 0.1% FBS for about 3 hours. HaCaT cells were treated with IS217 at about 0 hours and about 24 hours in concentration range of from about 100 μg/ml to about 5000 μg/ml and incubated for about 24 hours. Curcumin (1 μM-50 μM) was used as positive control. After about 48 hours of first treatment, cells were incubated with Annexin-V reagent and subsequently analyzed by flow cytometry (Guava technologies) for identification of cells population.

[3] = tested on: P-VEGFR-2, VEGFR-2, NRP-1, Akt, p-NRP1, P-Akt, ERK1/2, P-ERK1/2, p-38, P-p-38; experiment: Biomarker estimation by western blotting; type: cell-based; settings: 500 and 1000 μg/ml, western blot
Description: Targets screened are as follows: P-VEGFR-1, P-VEGFR-2, P-VEGFR-3, VEGFR-1, VEGFR-2, VEGFR-3, NRP-1, MPO, Akt, PAkt, ERK1/2, P-ERK1/2, MAPK, p-38, P-p-38, p-NRP1 and GAPDH.

CYP2C9 = target: T1, CYP2C9 (Homo sapiens, UniProt P11712); experiment: in vitro; type: in vitro ADME
T1 construct: purchased
T1 sequence (P11712 whole entry): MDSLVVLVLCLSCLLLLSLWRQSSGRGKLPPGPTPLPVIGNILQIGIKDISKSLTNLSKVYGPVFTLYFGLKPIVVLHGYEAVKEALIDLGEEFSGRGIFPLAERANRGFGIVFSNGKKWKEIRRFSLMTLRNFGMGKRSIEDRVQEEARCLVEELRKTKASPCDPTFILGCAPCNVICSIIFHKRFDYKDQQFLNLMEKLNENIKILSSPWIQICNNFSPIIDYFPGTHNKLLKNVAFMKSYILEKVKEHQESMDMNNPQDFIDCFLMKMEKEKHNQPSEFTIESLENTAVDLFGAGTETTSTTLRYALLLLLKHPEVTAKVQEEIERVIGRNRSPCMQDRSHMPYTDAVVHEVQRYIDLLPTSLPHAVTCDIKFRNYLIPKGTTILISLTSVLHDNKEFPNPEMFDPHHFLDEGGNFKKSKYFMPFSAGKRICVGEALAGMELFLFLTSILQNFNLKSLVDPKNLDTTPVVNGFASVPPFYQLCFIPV
Description: (§1) The study design determined inhibition potential of test item (IS217) for CYP3A4, CYP1A2, CYP2C9, CYP2D6 and CYP2C19 using high throughput inhibitor screening kit. The experiment was performed with concentrations range of 10 μg/mL to 0.005 μg/mL of test compound IS217. Positive controls taken were specific to individual kit, which were taken as follows:
(§2) At the end of incubation period, metabolism of fluorescent substrates to their metabolites was read using fluorescent multiwall spectrophotometer (Biotek reader). Very less (<20% at 10 μg/mL) to no inhibition potential was observed towards enzymes CYP3A4, CYP2C9, CYP2D6, CYP1A2 and CYP2C19.

CYP2D6 = target: T2, CYP2D6 (Homo sapiens, UniProt P10635); experiment: in vitro; type: in vitro ADME
T2 construct: purchased
T2 sequence (P10635 whole entry): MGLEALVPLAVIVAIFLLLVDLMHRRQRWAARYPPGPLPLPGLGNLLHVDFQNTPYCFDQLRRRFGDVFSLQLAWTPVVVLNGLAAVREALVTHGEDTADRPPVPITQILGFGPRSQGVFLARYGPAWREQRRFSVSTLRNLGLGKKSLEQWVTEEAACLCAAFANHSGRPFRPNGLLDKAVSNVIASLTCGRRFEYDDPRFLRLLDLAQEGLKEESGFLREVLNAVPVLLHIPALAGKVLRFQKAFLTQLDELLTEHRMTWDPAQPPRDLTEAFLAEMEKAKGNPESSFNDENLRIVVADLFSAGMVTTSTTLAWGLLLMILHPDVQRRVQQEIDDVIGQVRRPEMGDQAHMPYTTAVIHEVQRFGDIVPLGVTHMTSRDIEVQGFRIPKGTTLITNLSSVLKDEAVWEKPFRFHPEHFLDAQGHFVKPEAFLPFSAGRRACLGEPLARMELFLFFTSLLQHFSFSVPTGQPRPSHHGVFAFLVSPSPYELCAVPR
Description: as §1, §2

CYP3A4 = target: T3, CYP3A4 (Homo sapiens, UniProt P08684); experiment: in vitro; type: in vitro ADME
T3 construct: purchased
T3 sequence (P08684 whole entry): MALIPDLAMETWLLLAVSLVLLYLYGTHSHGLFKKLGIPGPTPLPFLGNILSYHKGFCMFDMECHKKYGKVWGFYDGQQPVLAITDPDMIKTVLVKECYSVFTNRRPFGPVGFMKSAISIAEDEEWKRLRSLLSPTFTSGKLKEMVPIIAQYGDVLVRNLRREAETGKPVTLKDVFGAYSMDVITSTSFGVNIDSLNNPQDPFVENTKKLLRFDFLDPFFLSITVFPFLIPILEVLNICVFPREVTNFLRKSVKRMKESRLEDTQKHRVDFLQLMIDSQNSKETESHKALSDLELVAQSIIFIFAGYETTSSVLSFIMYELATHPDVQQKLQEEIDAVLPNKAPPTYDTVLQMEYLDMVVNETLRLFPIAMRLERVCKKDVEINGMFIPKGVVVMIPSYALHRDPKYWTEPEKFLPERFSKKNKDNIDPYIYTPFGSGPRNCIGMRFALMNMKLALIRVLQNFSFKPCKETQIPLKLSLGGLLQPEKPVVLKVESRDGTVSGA
Description: as §1, §2

CYP2C19 = target: T4, CYP2C19 (Homo sapiens, UniProt P33261); experiment: in vitro; type: in vitro ADME
T4 construct: purchased
T4 sequence (P33261 whole entry): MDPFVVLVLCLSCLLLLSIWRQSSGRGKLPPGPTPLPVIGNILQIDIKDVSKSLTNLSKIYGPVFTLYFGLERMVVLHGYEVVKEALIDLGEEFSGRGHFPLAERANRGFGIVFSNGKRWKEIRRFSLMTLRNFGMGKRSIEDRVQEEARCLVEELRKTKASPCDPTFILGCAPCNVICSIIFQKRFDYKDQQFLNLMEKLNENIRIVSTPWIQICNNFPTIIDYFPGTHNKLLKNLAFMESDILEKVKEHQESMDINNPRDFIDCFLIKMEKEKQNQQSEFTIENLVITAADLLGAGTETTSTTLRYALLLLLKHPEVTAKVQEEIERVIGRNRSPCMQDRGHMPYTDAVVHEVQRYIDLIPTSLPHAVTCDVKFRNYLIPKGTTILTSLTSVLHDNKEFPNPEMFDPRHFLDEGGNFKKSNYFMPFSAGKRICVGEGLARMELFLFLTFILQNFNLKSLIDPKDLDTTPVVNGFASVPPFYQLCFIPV
Description: as §1, §2

In the case of “H-FAKKFAKKFK-OH [IS217, H-Phe-Ala-Lys-Lys-Phe-Ala-Lys-Lys-Phe-Lys-OH]”, the “activation of Caspase 3” value (Caspase 3) is reported as “did not lead to activation”, the half-life at 100 μg/ml (in vitro) is reported as 47.9 min and the metabolised at 1 h, 100 μg/ml (in vitro) is reported as roughly 58%. The microsomal CLint at 100 μg/ml (in vitro) was 14.5 µL/min/mg, the “stability of IS217 API” value ([1]; 6 months at long term stability condition −20 ± 5° C.) was “stable” and the “Appearance, change” value ([1]; 1st month) was “No change”. The “Assessment of container closure system, change” value (“Assessment … change” for short) ([1]; 1st month) was “No change”, the “Clarity of solution, change” value ([1]; 1st month) was “No change” and the “Color of Solution, change” value ([1]; 1st month) was “No change”. For the same substance, the “Color, change” value ([1]; 1st month) was “No change”, the “Odor, change” value ([1]; 1st month) was “No change” and the “Appearance, change” value ([1]; 2nd month) was “No change”. The “Assessment … change” value ([1]; 2nd month) was “No change”, the “Clarity of solution, change” value ([1]; 2nd month) was “No change” and the “Color of Solution, change” value ([1]; 2nd month) was “No change”. For the same substance, the “Color, change” value ([1]; 2nd month) was “No change”, the “Odor, change” value ([1]; 2nd month) was “No change” and the “Appearance, change” value ([1]; 3rd month) was “No change”. The “Assessment … change” value ([1]; 3rd month) was “No change”, the “Clarity of solution, change” value ([1]; 3rd month) was “No change” and the “Color of Solution, change” value ([1]; 3rd month) was “No change”. The “Color, change” value ([1]; 3rd month) was “No change”, the “Odor, change” value ([1]; 3rd month) was “No change” and the “Appearance, change” value ([1]; 6th month) was “No change”. For the same substance, the “Assessment … change” value ([1]; 6th month) was “No change”, the “Clarity of solution, change” value ([1]; 6th month) was “No change” and the “Color of Solution, change” value ([1]; 6th month) was “No change”. The “Color, change” value ([1]; 6th month) was “No change”, the “Odor, change” value ([1]; 6th month) was “No change” and the “API calculated on the anhydrous basis (OAB)” value (from here on “API calculated”) ([1]; −20 ± 5° C., 1 M) was 98.98%. The “Related substances (By HPLC), Any Max. Impurity” value ([1]; −20 ± 5° C., 1 M) was 0.64%, the “Related substances (By HPLC), Total Impurity” value ([1]; −20 ± 5° C., 1 M) was 0.85% and the “Solubility (Soluble in water)” value ([1]; −20 ± 5° C., 1 M) was “Complies”. The “Water Content (By Karl Fischer-Titrator)” value ([1]; −20 ± 5° C., 1 M) was 4.89% w/w, the “API calculated” value ([1]; −20 ± 5° C., 2 M) was 99.14% and the “Related substances (By HPLC), Any Max. Impurity” value ([1]; −20 ± 5° C., 2 M) was 0.64%. The “Related substances (By HPLC), Total Impurity” value ([1]; −20 ± 5° C., 2 M) was 0.85%, the “Solubility (Soluble in water)” value ([1]; −20 ± 5° C., 2 M) was “Complies” and the “Water Content (By Karl Fischer-Titrator)” value ([1]; −20 ± 5° C., 2 M) was 4.83% w/w. For the same substance, the “API calculated” value ([1]; −20 ± 5° C., 3 M) was 99.15%, the “Related substances (By HPLC), Any Max. Impurity” value ([1]; −20 ± 5° C., 3 M) was 0.72% and the “Related substances (By HPLC), Total Impurity” value ([1]; −20 ± 5° C., 3 M) was 0.85%. For the same substance, the “Solubility (Soluble in water)” value ([1]; −20 ± 5° C., 3 M) was “Complies”, the “Water Content (By Karl Fischer-Titrator)” value ([1]; −20 ± 5° C., 3 M) was 4.52% w/w and the “API calculated” value ([1]; −20 ± 5° C., 6 M) was 99.40%. For the same substance, the “Related substances (By HPLC), Any Max. Impurity” value ([1]; −20 ± 5° C., 6 M) was 0.35%, the “Related substances (By HPLC), Total Impurity” value ([1]; −20 ± 5° C., 6 M) was 0.61% and the “Solubility (Soluble in water)” value ([1]; −20 ± 5° C., 6 M) was “Complies”. The “Water Content (By Karl Fischer-Titrator)” value ([1]; −20 ± 5° C., 6 M) was 4.99% w/w, the “API calculated” value ([1]; −20 ± 5° C., Initial) was 99.28% and the “Related substances (By HPLC), Any Max. Impurity” value ([1]; −20 ± 5° C., Initial) was 0.60%. The “Related substances (By HPLC), Total Impurity” value ([1]; −20 ± 5° C., Initial) was 0.72%, the Remark ([1]; −20 ± 5° C., Initial) was “Complies” and the “Solubility (Soluble in water)” value ([1]; −20 ± 5° C., Initial) was “Complies”. The “Water Content (By Karl Fischer-Titrator)” value ([1]; −20 ± 5° C., Initial) was 4.66% w/w, the “increase in necrotic cells” value ([2]; 100 μg/ml) was 3.6 fold and the “increase in late apoptotic cells” value ([2]; 1000 μg/ml) was 1.7 fold. For the same substance, the “increase in late apoptotic cells” value ([2]; 2000 μg/ml) was 3.4 fold, the “increase in necrotic cells” value ([2]; 2000 μg/ml) was 1.4 fold and the “increase in late apoptotic cells” value ([2]; 5000 μg/ml) was 5.6 fold. For the same substance, the “increase in necrotic cells” value ([2]; 5000 μg/ml) was 3.1 fold, the “increase in early apoptotic cells” value ([2]; HaCaT, 100-5000 μg/ml) was “no increase” and the “protein levels of P-VEGFR-2, VEGFR-2, NRP-1, Akt, p-NRP1, P-Akt, ERK1/2, P-ERK1/2, p-38, P-p-38” value [3] was “downregulated”. The inhibition at 10 μg/mL (CYP2C9) was less than 20%, the inhibition at 10 μg/mL (CYP2D6) was less than 20% and the inhibition at 10 μg/mL (CYP3A4) was less than 20%. For the same substance, the inhibition at 10 μg/mL (CYP2C19) was less than 20%.
